From EP2386565A2, “Compounds and methods to inhibit or augment an inflammatory response” (Cambridge Enterprise Ltd., priority 1999, dated 2000)
Positions of bridges follow the written chain, without caps; N, C: chain ends. Non-standard residues stand in square brackets, D forms with d. Residues, ends and D or L forms follow the SMILES beside them.

Columns and labels:
[1] = tested on: MCP-1 induced calcium flux; test: Intracellular calcium flux, MCP-1 as agonist; type: cell-based
[2] = tested on: MCP-1- and LPS-induced dermal inflammation; test: Dermal inflammation model (intradermal MCP-1 / LPS); type: in vivo, rat; conditions: for MCP-1 induced recruitment of monocyte/macrophages in skin (in words): systemic treatment before intradermal MCP-1
Description: To assess the efficacy of an agent of the invention in the prevention of lipopolysaccharide (LPS)- and MCP-1-induced dermal inflammation in the rat, three different doses of CRD-Leu4Ile11Cys13peptide 3(3-12)[MCP-1] were administered. An inflammatory response was elicited by intradermal injection (ventral abdomen) of either 500 ng MCP-1 or 100 ng MCP-1 along with endotoxin-free phosphate-buffered saline vehicle (as a negative control) and bacterial lipopolysaccharide (LPS; as a positive control). Each substance was injected at a different site. The results obtained from animals were compared to CRD-Leu4Ile11Cys13 peptide 3(3-12)[MCP-1] treated, and PBS (diluent control) treated, animals. Thirty minutes prior to intradermal agonist administration, the animals received an intravenous loading dose (3, 30 or 300 mg) and a subcutaneous depot dose (0.1, 1 or 10 mg) (on dorsum) of the pan-chemokine inhibitor CRD-Leu4Ile11Cys13peptide 3(3-12)[MCP-1] (see, for example, Figure 12). Animals were sacrificed at 20-24 hours post injection. Serum and urine were collected. The intradermal sites of agonist injection were collected, bisected and the extent of the inflammatory response was assessed by histopathology and quantitative immunofluorescence (fixed and frozen) (for example, following MCP-1 injection, the number of monocyte/macrophages in the skin was determined using the anti-CD14 (MCA342 from Serotec; clone ED2) at 3 µg/ml overnight at 4°C. The second antibody was rat anti-mouse FITC (415-096-100 from Jackson ImmunoResearch) at 28 µg/ml for 6 hours at room temperature). In addition, toxicity of CRD-Leu4Ile11Cys13peptide 3(3-12)[MCP-1] was assessed by collection of the following tissue samples in 10% neutral buffered formalin for histologic analysis: lung, liver, kidney, spleen, thymus, heart, and antagonist (test agent) injection site.
Although MCP-1 is fairly specific as a monocyte/macrophage chemoattractant, dermal injection of LPS induces recruitment of a broader range of leukocytes, including T- and B-cells and neutrophils. Specific antibodies to rat B-cells (MCA 1432 from Serotec) were used at 10 µg/ml overnight at 4°C to determine whether CRD-Leu4Ile11Cys13 peptide 3(3-12)[MCP-1] affected the recruitment of this leukocyte subpopulation. Secondary antibody was anti-mouse FITC (415-096-100 from Jackson ImmunoResearch, as above).
(10 mg in 200 µl subcutaneous). Thirty minutes later, PBS, 50 ng LPS and 500 ng MCP-1 were injected into three separate sites on the ventral abdomen of each rat. Animals were sacrificed 24 hours later and the intradermal site was excised, and frozen in OCT embedding media. Five µm sections were collected from each rat intradermal site and stored at -20°C. The number of monocytes (anti-rat CD14, Serotec), T cells, neutrophils (anti-rat granulocytes, Harlan Seralab), B-lymphocytes (anti-rat B cells, Serotec), and MCP-1, IL-8, and TNF-α (anti-mouse TNF-α, R and D Systems) were measured. Eight test sections and two control sections were stained at each site for each animal through a distance of 2.5 mm. The median percentage area was determined for each animal and for each group using NIH image, as the largest variability of staining was between sections rather than in any one section.

[3] = tested on: TGFβ1 induced THP-1 migration; test: THP-1 trans-well migration assay, TGFβ1 as non-chemokine control chemoattractant; type: cell-based, human; conditions: for % inhibition at 100 µM versus TGFβ1: THP-1 migration, agent at 100 µM, n.s. = no statistically significant inhibition
Description: Any method suitable for counting cells can be used, for example, counting with a hemocytometer, incubation of the cells with MTT (see above), or FACS analysis. A negative control assay is also performed, using TGF-β or another non-chemokine chemoattractant (e.g., IL1β or TNFα). To assess whether the agent is cytotoxic, the same concentrations of agent are incubated with THP-1 cells. Agents which 1) are not cytotoxic at levels which inhibit migration, 2) are ineffective at inhibiting the negative control-induced migration, and 3) reduce or inhibit chemokine-induced THP-1 migration, are agents which fall within the scope of the invention.
For this assay, THP-1 cells were maintained at a density of 4 × 10^5 cells per ml in RPMI-1640 supplemented with 10% fetal calf serum + 20 µM 2-mercaptoethanol. Chemotaxis was induced in a 96-well disposable chemotaxis chamber fitted with a 5 µM polycarbonate filter (PVP free, ChemoTX, Neuroprobe Inc., Cabin John). Twenty-nine µl of chemoattractant (recombinant human chemokine; 50 ng/ml, i.e., 5.9 nM) or control (100 ng/ml TGFβ) was added to the lower compartment of each well. The framed filter was aligned with the holes in the corner of the filter frame and placed over the wells.
Five × 10^4 THP-1 cells in 25 µl of RPMI-1640 were added to the upper compartment. Peptides were dissolved in Milli Q water and then serially diluted in culture medium. […]
After incubation, the cells were gently removed from the top of the filter with a pipette, 20 µl of 20 mM EDTA in PBS was added into each top well, and the mixture was incubated for 20 minutes at 4°C. […] A standard curve was prepared to accurately quantify the number of THP-1 cells that had migrated. […] Absorbance of converted dye was measured at a wavelength of 595 nm using an ELISA plate reader. The number of cells that had migrated in each well was determined by interpolation of the standard curve.
To investigate the receptor specificity of peptide 3 inhibition, the ED50 was determined for peptide 3(1-12)[MCP-1] […]

| Structure (SMILES) | MCP-1 induced calcium flux (in words) [1] | TNF-α, IL-8 and MCP-1 at the LPS intradermal site (in words) ([2]; 10 mg subcutaneous, 50 ng LPS) | median percentage area stained for neutrophils, monocytes, CD4+ T lymphocytes and B-lymphocytes at the LPS site (in words) ([2]; 10 mg subcutaneous, 50 ng LPS) | recruitment of B-cells to the site of the LPS injection (in words) ([2]; rat, in vivo) | reduction in the number of monocyte/macrophages recruited in response to injected bacterial LPS ([2]; rat, in vivo) [%] | MCP-1 induced recruitment of monocyte/macrophages in skin (in words) [2] | MCP-1 induced recruitment of monocyte/macrophages in skin (in words) ([2]; listed as CRD-Leu4Ile11Cys13peptide 3(3-12)) | % inhibition at 100 µM versus TGFβ1 [3] | % inhibition at 100 µM versus TGFβ1 ([3]; listed as peptide 1[MCP-1]) | ED50 (µM) versus TGFβ1 ([3]; inhibition of THP-1 migration, n.s. = not statistically significant) |
| --- | --- | --- | --- | --- | --- | --- | --- | --- | --- | --- |
| CC[C@@H](C)[C@H]1NC(=O)[C@@H](CCC(N)=O)NC(=O)[C@H](N)CSSC[C@H](C(N)=O)NC(=O)[C@@H](CC(C)C)NC(=O)[C@@H](CC(=O)O)NC(=O)[C@H]2CCCN2C(=O)[C@@H](CCCCN)NC(=O)[C@@H](CCC(N)=O)NC(=O)[C@@H](CCCCN)NC(=O)[C@@H](Cc2c[nH]c3ccccc23)NC1=O (H-[dC][dQ][dI][dW][dK][dQ][dK][dP][dD][dL][dC]-NH2; disulfide 1-11) | did not block | substantially reduced | abolished | substantially inhibited | > 80 | completely abolished | the inflammatory response is abolished |  |  |  |
| CC[C@H](C)[C@H](NC(=O)[C@H](C)NC(=O)[C@H](CC(=O)O)NC(=O)[C@@H]1CCCN1C(=O)[C@H](CCC(N)=O)NC(=O)[C@H](C)N)C(=O)N[C@@H](CC(N)=O)C(=O)N[C@@H](C)C(=O)N1CCC[C@H]1C(=O)N[C@H](C(=O)N[C@H](C(=O)N[C@@H](CS)C(=O)N[C@@H](CS)C(=O)O)[C@@H](C)O)C(C)C [Peptide 1] (H-AQPDAINAPVTCC-OH; N-terminus and C-terminus assumed) |  |  |  |  |  |  |  | n.s. | did not significantly inhibit | n.s. |
